Results on nine compounds are retold here after patent US20250108064A1, “PHOSPHATE PRODRUGS OF CANNABINOIDS” (priority 2021, published 2025).

Data set [1] in a line: physchem. The data set is classed as physicochemical. To be noted: aqueous buffer, kinetic from dmso stock, PBS pH 7.0-7.3, 1% DMSO, 25° C.; for solubility: nephelometry, 90 min. As for the experimental part: General Experimental: Nephelometry experiments were performed using untreated Corning® Costar® 96-well black polystyrene plates with clear flat bottoms. Sample stock solutions and serial dilutions were prepared with DriSolv® DMSO purchased from MilliporeSigma. All 100-fold dilutions and replicate experiments were prepared using Gibco® Dulbecco's phosphate-buffered saline (DPBS, no calcium, no magnesium) with a pH range of 7.0-7.3 as aqueous media. […] Nephelometry data was obtained using a NEPHELOstar® microplate reader and processed with MARS data analysis software from BMG LabTech.
Procedure for Nephelometry Experiments: Tested compounds were dissolved in 100% DMSO to make stock solutions of specified concentrations, ranging from 10 mM minimum up to 50 mM maximum. The sample then underwent serial dilution in a 96-well plate (Corning® Costar®). Well A1 of the plate contained 100% DMSO. […] Using a 12 channel multichannel pipette, 2.5 μL of sample from row A was transferred to each well in row B through row H of the plate. Next, 30 μL of PBS (pH=7.0-7.3) was added to row B through row H, providing each well with 32.5 μL. The plate was then incubated for 30 sec with shaking. Finally, 217.5 μL of PBS buffer was added to row B through row H, and the entire plate was incubated with shaking at 25° C. for 90 min. Note: The final volume of DMSO in actual experiments with PBS buffer was 1% throughout the plate. After 90 min, the 96-well plate was analyzed with a NEPHELOstar® instrument and the data was processed with MARS data analysis software.

The nature of data set [2]: Liver microsome stability assay (HLM). The data set is classed as in vitro ADME. To be noted: human, microsomes, pH 7.4; 3 μM test compound, NADPH; read-out: T½ in HLM. As for the experimental part: General Experimental: Human and mouse liver microsomes were purchased from Xenotech at 20 mg/mL. NADPH (Sigma-Aldrich) 10 mM stocks were prepared in deionized water.
Procedure for Liver Microsome Stability Assay: Test compounds and positive controls were dissolved in 100% DMSO to make 10 mM stock solutions. Verapamil (Sigma-Aldrich) and diphenhydramine (Sigma-Aldrich) were used as positive controls for both human liver microsomes (HLM) and mouse liver microsomes (MLM). The 10 mM stock solutions of test and control compounds were further diluted in potassium phosphate buffer (100 mM, pH 7.4) to 500 μM to ensure that the organic solvent content was <0.2%. The liver microsome (HLM or MLM) assay was prepared in a 1.5 mL Eppendorf tube with a final volume of 1100 μL for duplicate runs. Each reaction contained phosphate buffer (928.4 μL), liver microsomes (55 μL), and test compound (6.6 μL of 500 μM), resulting in a final concentration of 3 μM for the test compound. The reaction was initiated with 110 μL of 10 mM NADPH. Aliquots (100 μL) were removed in duplicate at 0, 5, 10, 15, and 30 min and quenched in […] of 100% cold methanol which contained internal standard (ISTD: d5-7-ethoxy coumarin 2 μM). The aliquots were centrifuged at 12,000 g for 5 min, and the supernatant was transferred and placed in an LC-MS vial. Each time point was assessed by LC-MS/MS, and the area under the m/z curve (AUC), based on the MRM transition, was integrated w.r.t the ISTD. Positive controls were conducted at a final volume of 550 μL to enable a single run for each time point. Negative controls in the absence of NADPH were performed with the test and control compounds, respectively, at a final volume of 150 μL and measured at the most prolonged time point. Control compounds were processed and analyzed like test compounds. Each time point was run in triplicates on LC-MS/MS followed by in-between blank washes to avoid the carryover and to equilibrate the column. Half-life (T1/2) was calculated using the data obtained from LC-MS/MS and by plotting ln (% remaining of the parent prodrug) versus time and performing linear regression to determine slope. Slope=−k and T1/2=0.693/k for first-order kinetics.
On the technique in general: Liver microsomes are vesicles of endoplasmic reticulum, rich in cytochrome P450 enzymes.

Data set [3] is described as follows: Plasma stability assay (human plasma). The data set is classed as in vitro ADME. The settings on record: 37° C.; for half-life: read-out: T½ in human plasma (converted). As for the experimental part:
General Experimental: Procaine and Procainamide were purchased from Sigma-Aldrich. Human plasma was obtained from BioIVT (Cat. No. […]2N) and 1X Dulbecco's PBS (pH 7.4, Gibco) was obtained from Thermos Fischer. Stock solutions were prepared in 100% DMSO, and suitable dilutions of target analytes were prepared in methanol for method development.
Procedure for Plasma Stability Assay: Test compounds were dissolved in DMSO to make a stock solution of 10 mM and then diluted to 500 μM in buffer (or 70% MeOH). Human plasma was thawed at ambient temperature and is aliquoted ([…]) to a 1.5 mL Eppendorf tube in duplicates (A and B) for each compound. Plasma was incubated at 37° C. for 10 minutes in an incubator shaker at 150 rpm; the reaction was initiated by the addition of the test compound (6.0 μL) and vortex mixing. The total reaction volume was 1000 μL where the final organic solvent concentrations were 0.6% MeOH and 0.03% DMSO. The spiked plasma samples were incubated at 37° C. for 4 hrs. The reactions were terminated at time points 0, 15, 30, 60, 120, 180, and 240 min by taking a 100 μL aliquot from the test incubation mixture and immediately quenching it in ice-cold acetonitrile containing internal standard (150 μL with 2 μM ISTD), followed by a quick vortex mixing. In addition, matrix blank was prepared by adding acetonitrile solutions containing ISTD to plasma samples without any of the analytes or control compounds. Also, an additional tube was made to measure compound degradation in PBS buffer. The samples were centrifuged at 15000 rpm for 25 min at 4° C. The supernatant was transferred to an LC-MS vial for analysis by LC/MS-MS. Each time point was run in duplicates followed by in-between blank washes to avoid the carryover and to equilibrate the column. Half-life (T1/2) was calculated using the data obtained from LC-MS/MS and by plotting ln (% remaining of the parent prodrug) versus time and performing linear regression to determine slope. Slope=−k and T1/2=0.693/k for first-order kinetics.
These positive controls were run in parallel to test the systems for competency.

Molecules are shown by their SMILES. A value given as a limit tells only on which side of the number the result lay.

A word on the solubility: it is the concentration that dissolves in the medium under given conditions.

Turning to `C=C(C)[C@@H]1CCC(C)=C[C@H]1c1c(O)cc(CCCCC)cc1OC(=O)C1(OP(=O)(O)OCCOC)CC1.N` [14i, 1-((((1′R,2′R)-6-hydroxy-5′-methyl-4-pentyl-2′-(prop-1-en-2-yl)-1′,2′,3′,4′-tetrahydro-[1,1′-biphenyl]-2-yl)oxy)carbonyl)cyclopropyl (2-methoxyethyl) phosphate ammonium salt], the solubility in data set [1] was over 500 µM. Further, the half-life in data set [2] is 0.317 h; in data set [3], over 4 h.

`C=C(C)[C@@H]1CCC(C)=C[C@H]1c1c(O)cc(CCCCC)cc1OC(=O)C1(OP(=O)(O)OCCOCCOC)CC1.N` [14j, 1-((((1′R,2′R)-6-hydroxy-5′-methyl-4-pentyl-2′-(prop-1-en-2-yl)-1′,2′,3′,4′-tetrahydro-[1,1′-biphenyl]-2-yl)oxy)carbonyl)cyclopropyl (2-(2-methoxyethoxy)ethyl) phosphate ammonium salt] showed a solubility in data set [1] of over 500 µM. Further, the figures for the half-life in data set [2] and in data set [3] were 0.4 h and over 4 h, respectively.

In data set [1], `C=C(C)[C@@H]1CCC(C)=C[C@H]1c1c(O)cc(CCCCC)cc1OC(=O)OCCOP(=O)(O)O.N.N` [29a, (1′R,2′R)-6-hydroxy-5′-methyl-4-pentyl-2′-(prop-1-en-2-yl)-1′,2′,3′,4′-tetrahydro-[1,1′-biphenyl]-2-yl(2-(phosphonooxy)ethyl) carbonate di-ammonium salt] yielded a solubility of over 500 µM. Besides, the half-life in data set [2] is 0.7 h; in data set [3] it was 16.5 h.

Compound `C=C(C)[C@@H]1CCC(C)=C[C@H]1c1c(O)cc(CCCCC)cc1OC(=O)OCCCOP(=O)(O)O.N.N` [29b, (1′R,2′R)-6-hydroxy-5′-methyl-4-pentyl-2′-(prop-1-en-2-yl)-1′,2′,3′,4′-tetrahydro-[1,1′-biphenyl]-2-yl(3-(phosphonooxy)propyl) carbonate di-ammonium salt] registered a solubility in data set [1] of over 500 µM. Moreover, the figures for the half-life in data set [2] and in data set [3] were 0.317 h and over 4 h, respectively.

For the compound `C=C(C)[C@@H]1CCC(C)=C[C@H]1c1c(O)cc(CCCCC)cc1OC(=O)OCCCCOP(=O)(O)O.N.N` [29c, (1′R,2′R)-6-hydroxy-5′-methyl-4-pentyl-2′-(prop-1-en-2-yl)-1′,2′,3′,4′-tetrahydro-[1,1′-biphenyl]-2-yl(4-(phosphonooxy)butyl) carbonate di-ammonium salt], the solubility in data set [1] was over 500 µM. For the same compound, the half-life is 0.417 h in data set [2] and over 4 h in data set [3].

In data set [1], `C=C(C)[C@@H]1CCC(C)=C[C@H]1c1c(O)cc(CCCCC)cc1OC(=O)NCCOP(=O)(O)O.N.N` [38a, (1′R,2′R)-6-hydroxy-5′-methyl-4-pentyl-2′-(prop-1-en-2-yl)-1′,2′,3′,4′-tetrahydro-[1,1′-biphenyl]-2-yl(2-(phosphonooxy)ethyl)carbamate di-ammonium salt] registered a solubility of over 500 µM. In addition, the half-life in data set [2] is 2.02 h; in data set [3], over 4 h.

On to `C=C(C)[C@@H]1CCC(C)=C[C@H]1c1c(O)cc(CCCCC)cc1OC(=O)N(C)CCOP(=O)(O)O.N.N` [38b, (1′R,2′R)-6-hydroxy-5′-methyl-4-pentyl-2′-(prop-1-en-2-yl)-1′,2′,3′,4′-tetrahydro-[1,1′-biphenyl]-2-yl methyl(2-(phosphonooxy)ethyl)carbamate di-ammonium salt], for which, in data set [1], the solubility at 90 min is over 500 µM. For the same compound, the half-life at 3 μM in data set [2] was 3.83 h; in data set [3] (read-out: T½ in human plasma), over 4 h.

With `C=C(C)[C@@H]1CCC(C)=C[C@H]1c1c(O)cc(CCCCC)cc1OC(=O)NCCCOP(=O)(O)O.N.N` [38c, (1′R,2′R)-6-hydroxy-5′-methyl-4-pentyl-2′-(prop-1-en-2-yl)-1′,2′,3′,4′-tetrahydro-[1,1′-biphenyl]-2-yl (3-(phosphonooxy)propyl)carbamate di-ammonium salt], the solubility in data set [1] is over 500 µM. The half-life in data set [2] is 1.22 h; in data set [3] it was over 4 h.

Compound `C=C(C)[C@@H]1CCC(C)=C[C@H]1c1c(O)cc(CCCCC)cc1OC(=O)C1(OP(=O)(O)OCc2ccccc2)CC1.N` [compound 8, benzyl (1-((((1′R,2′R)-6-hydroxy-5′-methyl-4-pentyl-2′-(prop-1-en-2-yl)-1′,2′,3′,4′-tetrahydro-[1,1′-biphenyl]-2-yl)oxy)carbonyl)cyclopropyl) phosphate ammonium salt] yielded a solubility in data set [1] of 287 ± 13 µM. The half-life was 0.383 h in data set [2] and 5.3 h in data set [3].
